Reference: US11707456B2, “Processes for preparing arimoclomol citrate and intermediates thereof” (KemPharm Denmark A/S, priority 2020, dated 2023)

What was measured:
[1] = Stability of ORZY-04 on drying at 45° C. in vacuum; format: physicochemical; conditions: after 168 h of drying at 45° C. in vacuum
Method: A citric acid solution was prepared by charging citric acid (15.01 g, […]) and MeOH (100 mL) in a separate container and stirring for 5 min. at 20° C. The citric acid solution was then charged to the container containing the reaction solution, and the mixture was cooled to 0° C. and stirred for at least 12 h at 0° C. ORZY-04 was then isolated by filtration of the obtained suspension, and washed with MeOH (40 mL). Finally, the solids were dried at 45° C. in vacuum. Results

[2] = design: species or system human; conditions: in vivo, po
From the text: The stability permits that the permeability of arimoclomol is high based on urinary recovery in human mass balance trial.

Row | stability on drying [1] | drug-related material recovered in faeces [2] [%] | Compound
1 | stable | – | [O-][n+]1cccc(/C(Cl)=N/OC[C@H](O)CN2CCCCC2)c1 [ORZY-04]
2 | – | 12 | [O-][n+]1cccc(C(Cl)=NOC[C@H](O)CN2CCCCC2)c1 [arimoclomol, N-{[(2R)-2-hydroxy-3-piperidin-1-ylpropyl]oxy}pyridine-3-carboximidoyl chloride 1-oxide]
